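Growth conditions: 96-well plates. Treatment: test compound, 48 hours, 5 concentrations. Analysis: linear interpolation between bracketing concentrations; unreached endpoints set to highest concentration. Here, GI50 denotes the concentration required for 50% inhibition of growth.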 Active and inactive are the calls of the source. Cut-off read from the data, not from the text of the source: active = GI50 up to about 1.1 µM and inactive = higher.
Key:
Assay in all cases: inhibition of tumour cell growth, NCI panel, 48 h
CCRF-CEM = tested on: CCRF-CEM
OVCAR-8 = tested on: OVCAR-8
786-0 = tested on: 786-0
SF-295 = tested on: SF-295
KM12 = tested on: KM12
LOX IMVI = tested on: LOX IMVI
CAKI-1 = tested on: CAKI-1
SK-MEL-2 = tested on: SK-MEL-2
DLD-1 = tested on: DLD-1
SF-539 = tested on: SF-539
HT-29 = tested on: HT-29
NCI-H460 = tested on: NCI-H460
SNB-75 = tested on: SNB-75
SK-OV-3 = tested on: SK-OV-3
SNB-19 = tested on: SNB-19
M14 = tested on: M14
OVCAR-3 = tested on: OVCAR-3
NCI-H23 = tested on: NCI-H23
Malme-3M = tested on: Malme-3M

Row | SMILES | GI50 (CCRF-CEM) | GI50 (OVCAR-8) | GI50 (786-0) | GI50 (SF-295) | GI50 (KM12) | GI50 (LOX IMVI) | GI50 (CAKI-1) | GI50 (SK-MEL-2) | GI50 (DLD-1) | GI50 (SF-539) | GI50 (HT-29) | GI50 (NCI-H460) | GI50 (SNB-75) | GI50 (SK-OV-3) | GI50 (SNB-19) | GI50 (M14) | GI50 (OVCAR-3) | GI50 (NCI-H23) | GI50 (Malme-3M)
1 | CCSC1(SCC)CCN(/C=N/C(C)(C)C)C1 | 76.4 µM (inactive) | > 100 µM (inactive) | > 100 µM (inactive) | > 100 µM (inactive) | > 100 µM (inactive) | 52.6 µM (inactive) | > 100 µM (inactive) | > 100 µM (inactive) | 62.4 µM (inactive) | > 100 µM (inactive) | > 100 µM (inactive) | > 100 µM (inactive) | > 100 µM (inactive) | > 100 µM (inactive) | > 100 µM (inactive) | > 100 µM (inactive) | > 100 µM (inactive) | > 100 µM (inactive) | > 100 µM (inactive)
2 | COc1ccc2c(c1OC)C1=C(C2=O)c2cc3c(cc2CCN1)OCO3 | 26.1 µM (inactive) | 39.9 µM (inactive) | 31.9 µM (inactive) | 33.5 µM (inactive) | 20.4 µM (inactive) | 24.8 µM (inactive) | 27.3 µM (inactive) | 29 µM (inactive) | 42.4 µM (inactive) | 28.2 µM (inactive) | 18.9 µM (inactive) | 32.4 µM (inactive) | 2.74 µM (inactive) |  |  | 37.3 µM (inactive) | 31.6 µM (inactive) | 46.5 µM (inactive) | 69.3 µM (inactive)
3 | COc1cc(Nc2nc3ccc(C(F)(F)F)cc3nc2-c2ccccc2)cc(OC)c1OC | 8.11 µM (inactive) | 28.2 µM (inactive) | 31 µM (inactive) | 3.05 µM (inactive) | 9.38 µM (inactive) | 4.32 µM (inactive) | 18.8 µM (inactive) | 21.9 µM (inactive) | 6.73 µM (inactive) | 25.2 µM (inactive) | 1.98 µM (inactive) | 4.82 µM (inactive) | > 100 µM (inactive) | > 100 µM (inactive) |  | 9.93 µM (inactive) | 40.6 µM (inactive) | 67.5 µM (inactive) | 37 µM (inactive)
4 | CC(C)CC(=O)NS(=O)(=O)c1ccccc1 | > 100 µM (inactive) | > 100 µM (inactive) | > 100 µM (inactive) | > 100 µM (inactive) | > 100 µM (inactive) | > 100 µM (inactive) | > 100 µM (inactive) | > 100 µM (inactive) | > 100 µM (inactive) | > 100 µM (inactive) | > 100 µM (inactive) | > 100 µM (inactive) | > 100 µM (inactive) | > 100 µM (inactive) | > 100 µM (inactive) | > 100 µM (inactive) | > 100 µM (inactive) | > 100 µM (inactive) | > 100 µM (inactive)
5 | COC1(OC)C2(Cl)C(Cl)=C(Cl)C1(Cl)C1C2C2CC1(C(=O)O)c1ccccc12 (centres undefined) | 4.74 µM (inactive) | 27.4 µM (inactive) | 16.4 µM (inactive) | 25.4 µM (inactive) |  | 16.7 µM (inactive) | 31.3 µM (inactive) |  | 17.8 µM (inactive) |  | 30.3 µM (inactive) | 20.7 µM (inactive) |  | 33.3 µM (inactive) | 67.1 µM (inactive) | 17.9 µM (inactive) | 18.2 µM (inactive) | 14.3 µM (inactive) | 16 µM (inactive)
6 | CCOC(=O)C(C)(c1c(C)[nH]c2ccccc12)c1c(C)[nH]c2ccccc12 | 17.9 µM (inactive) | 26.8 µM (inactive) | 19.1 µM (inactive) | 14 µM (inactive) | 14.2 µM (inactive) |  | 14.3 µM (inactive) | 18.8 µM (inactive) | 23.7 µM (inactive) | 18.7 µM (inactive) | 16.7 µM (inactive) | 17.6 µM (inactive) | 17.6 µM (inactive) | 26 µM (inactive) |  | 14.4 µM (inactive) | 16 µM (inactive) | 17.1 µM (inactive) | 17.3 µM (inactive)
7 | CC(O[Si](C)(C)C)C1C=CC(C)n2c(=O)n(-c3ccccc3)c(=O)n21 (centres undefined) |  | > 100 µM (inactive) | > 100 µM (inactive) | > 100 µM (inactive) | > 100 µM (inactive) |  | > 100 µM (inactive) | > 100 µM (inactive) | > 100 µM (inactive) | > 100 µM (inactive) | > 100 µM (inactive) |  |  | > 100 µM (inactive) | > 100 µM (inactive) | > 100 µM (inactive) | > 100 µM (inactive) | > 100 µM (inactive) | > 100 µM (inactive)
8 | CCOc1cc[n+]([C-](C#N)C#N)cc1 | > 100 µM (inactive) | > 100 µM (inactive) | > 100 µM (inactive) | > 100 µM (inactive) | > 100 µM (inactive) | > 100 µM (inactive) | > 100 µM (inactive) |  | > 100 µM (inactive) | > 100 µM (inactive) | > 100 µM (inactive) | > 100 µM (inactive) | > 100 µM (inactive) | > 100 µM (inactive) | > 100 µM (inactive) | > 100 µM (inactive) | > 100 µM (inactive) | > 100 µM (inactive) | > 100 µM (inactive)
9 | CCCC12Cc3c(OC)ccc(OC)c3CC(Cc3c(OC)ccc(OC)c31)C2=O (centres undefined) | > 100 µM (inactive) | > 100 µM (inactive) | > 100 µM (inactive) | > 100 µM (inactive) | > 100 µM (inactive) |  | 9.64 µM (inactive) | > 100 µM (inactive) | > 100 µM (inactive) | > 100 µM (inactive) | > 100 µM (inactive) | > 100 µM (inactive) | > 100 µM (inactive) | > 100 µM (inactive) | > 100 µM (inactive) | > 100 µM (inactive) | > 100 µM (inactive) | > 100 µM (inactive) | 69.3 µM (inactive)
10 | Cc1cc2c(=O)cc(-c3cccs3)oc2c(C(=O)O)c1C | 64.7 µM (inactive) | > 100 µM (inactive) | > 100 µM (inactive) | > 100 µM (inactive) | 97.7 µM (inactive) | > 100 µM (inactive) |  | > 100 µM (inactive) | > 100 µM (inactive) | > 10 µM (inactive) | > 100 µM (inactive) | > 100 µM (inactive) | 1.56 µM (inactive) | > 100 µM (inactive) | > 100 µM (inactive) | > 100 µM (inactive) | > 100 µM (inactive) | > 100 µM (inactive) | > 100 µM (inactive)
11 | C=C1c2[nH]c3c([N+](=O)[O-])c(OC)ccc3c2CCN1C(C)=O | > 100 µM (inactive) | > 100 µM (inactive) | > 100 µM (inactive) | > 100 µM (inactive) | > 100 µM (inactive) | > 100 µM (inactive) | 21.6 µM (inactive) | > 100 µM (inactive) | 22.1 µM (inactive) | > 100 µM (inactive) | > 100 µM (inactive) | > 100 µM (inactive) | 25 µM (inactive) |  | > 100 µM (inactive) | > 100 µM (inactive) | > 100 µM (inactive) | > 100 µM (inactive) | 
12 | CC(C)(C)C1=CC(=N/N=c2\scc(-c3ccccc3)n2-c2ccccc2)C=C(C(C)(C)C)C1=O | > 100 µM (inactive) | > 100 µM (inactive) | > 100 µM (inactive) | > 100 µM (inactive) | > 100 µM (inactive) | > 100 µM (inactive) | > 100 µM (inactive) | > 100 µM (inactive) | > 100 µM (inactive) | > 100 µM (inactive) | > 100 µM (inactive) | > 100 µM (inactive) | > 100 µM (inactive) | > 100 µM (inactive) | > 100 µM (inactive) | > 100 µM (inactive) | > 100 µM (inactive) | > 100 µM (inactive) | > 100 µM (inactive)
13 | Cc1ccc(NC(=O)C2C(=O)N(c3ccc(C)c(C)c3)C(=O)/C2=N/O)cc1C (centres undefined) | > 100 µM (inactive) | > 100 µM (inactive) | 68.1 µM (inactive) | > 100 µM (inactive) | > 100 µM (inactive) | 20.9 µM (inactive) | > 100 µM (inactive) | > 100 µM (inactive) | > 100 µM (inactive) | > 100 µM (inactive) | > 100 µM (inactive) | 44.7 µM (inactive) | > 100 µM (inactive) | > 100 µM (inactive) | > 100 µM (inactive) | > 100 µM (inactive) | > 100 µM (inactive) | > 100 µM (inactive) | > 100 µM (inactive)
14 | O=C(NNc1ccccc1)/C(=C/c1ccc2c(c1)OCO2)NC(=O)c1ccccc1 | 31 µM (inactive) | > 100 µM (inactive) | > 100 µM (inactive) | > 100 µM (inactive) | > 100 µM (inactive) | 41.6 µM (inactive) | > 100 µM (inactive) | > 100 µM (inactive) | > 100 µM (inactive) | > 100 µM (inactive) | > 100 µM (inactive) | > 100 µM (inactive) | > 100 µM (inactive) | > 100 µM (inactive) | > 100 µM (inactive) | > 100 µM (inactive) | 69 µM (inactive) | > 100 µM (inactive) | > 100 µM (inactive)
15 | CC(C)(C)C(=O)CC(=O)C(C)(C)C.CC(C)(C)C(=O)CC(=O)C(C)(C)C.[SiH4] | 1.79 µM (inactive) | 2.92 µM (inactive) | 2.69 µM (inactive) | 1.01 µM (active) | 0.767 µM (active) |  | 0.579 µM (active) |  | 0.436 µM (active) | 2.56 µM (inactive) | 0.475 µM (active) |  | 0.719 µM (active) | 1.87 µM (inactive) | 1.96 µM (inactive) | 2.18 µM (inactive) | 2.07 µM (inactive) | 1.04 µM (active) | 6.12 µM (inactive)

From ChEMBL document CHEMBL1201862, “PubChem BioAssay data set” (2004)
